# Patent US10597388B2, “Pyridazinone herbicides” (FMC CORPORATION, priority 2014, dated 2020)
# Tests used:
# Type in all cases: in vivo
# [1] = tested on: blackgrass (Alopecurus myosuroides); experiment: Test A greenhouse herbicide test, postemergence
# Outline: (§1)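 Plants grown in loam soil/sand blend pots were treated postemergence at 2 to 10 cm height, one- to two-leaf stage, with formulated test chemicals. After approximately 10 d in a greenhouse, injury was rated visually against untreated controls on a 0 to 100 scale (0 no effect, 100 complete control).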
# [2] = tested on: galium (catchweed bedstraw, Galium aparine); experiment: Test A greenhouse herbicide test, postemergence
# Outline: as §1
# [3] = tested on: wheat (winter wheat, Triticum aestivum); experiment: Test C greenhouse herbicide test, pre- and postemergence
# Outline: (§2)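 Preemergence: seeds sown in a loam soil–sand blend and sprayed with test chemicals in a non-phytotoxic solvent mixture containing surfactant. Postemergence: plants grown in peat-based medium and treated at 2 to 18 cm (1- to 4-leaf stage). After 13 to 15 d in a greenhouse, injury was visually rated 0–100 against controls.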
# [4] = tested on: pigweed (Amaranthus retroflexus); experiment: as above
# Outline: as §2
# [5] = tested on: johnsongrass (Sorghum halepense); experiment: as above
# Outline: as §2
# [6] = tested on: rice (Oryza sativa); experiment: Test B flooded paddy test; settings: 250 g ai/ha, Flood; visual rating on scale of 0 to 100 where 0 is no effect and 100 is complete control; 13 to 15 d after treatment
# Outline: (§3)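 Plants at the 2-leaf stage were flooded to 3 cm above soil, and test compounds were applied directly into the paddy water, which was held at that depth throughout. After 13 to 15 d in a greenhouse, injury was rated visually against untreated controls on a 0–100 scale (0 no effect, 100 complete control).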
# [7] = tested on: barnyardgrass (Echinochloa crus-galli); experiment: Test B flooded paddy test; settings: 250 g ai/ha, Flood; visual rating on scale of 0 to 100 where 0 is no effect and 100 is complete control; 13 to 15 d after treatment
# Outline: as §3
# [8] = tested on: sedge, umbrella (small-flower umbrella sedge, Cyperus difformis); experiment: Test B flooded paddy test; settings: 250 g ai/ha, Flood; visual rating on scale of 0 to 100 where 0 is no effect and 100 is complete control; 13 to 15 d after treatment
# Outline: as §3
# [9] = tested on: ducksalad (Heteranthera limosa); experiment: Test B flooded paddy test; settings: 250 g ai/ha, Flood; visual rating on scale of 0 to 100 where 0 is no effect and 100 is complete control; 13 to 15 d after treatment
# Outline: as §3
# [10] = tested on: kochia (Kochia scoparia); experiment: Test C greenhouse herbicide test, postemergence
# Outline: (§4)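 Greenhouse postemergence spray on plants 2–18 cm tall; response judged visually after 13–15 d relative to untreated controls using a 0 (none) to 100 (full control) scale.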
# [11] = tested on: oat, wild (wild oat, Avena fatua); experiment: Test C greenhouse herbicide test, postemergence
# Outline: as §4
# [12] = 125 g ai/ha, 0 to 100 scale where 0 is no effect and 100 is complete control
# [13] = 500 g ai/ha, visual rating after approx. 10 d, 0 to 100 scale (0 no effect, 100 complete control)
# [14] = Postemergence, 31 g ai/ha, scale 0 to 100 (0 no effect, 100 complete control)
# [15] = Postemergence, 62 g ai/ha, 0 to 100 scale (0 no effect, 100 complete control)
# [16] = Postemergence, 250 g ai/ha, scale 0 to 100, 0 no effect, 100 complete control, 13 to 15 d
# [17] = Preemergence, 31 g ai/ha, scale 0 to 100, 0 is no effect, 100 is complete control
# [18] = Preemergence, 62 g ai/ha, scale 0 to 100, 0 is no effect, 100 is complete control
# [19] = Preemergence, 125 g ai/ha, scale 0 to 100, 0 is no effect, 100 is complete control
# [20] = Preemergence, 250 g ai/ha, scale 0 to 100, 0 no effect, 100 complete control
# [21] = postemergence, 125 g ai/ha, scale 0 to 100, 0 no effect, 100 complete control
# [22] = 4 g ai/ha, preemergence, visual rating, scale 0 to 100 (0 no effect, 100 complete control), 13 to 15 d
# [23] = Postemergence, 8 g ai/ha, scale 0 to 100 (0 no effect, 100 complete control)
# [24] = Postemergence, 16 g ai/ha, scale 0 to 100 (0 no effect, 100 complete control)
# [25] = Preemergence, 16 g ai/ha, scale 0 to 100, 0 is no effect, 100 is complete control
smiles,measurement,setting,value
CCC(=O)Oc1c(C)nn(C)c(=O)c1-c1ccc(Br)c2ccccc12 [Compound 134],"Plant response rating, Blackgrass",[1]; [12],60
same,"Plant response rating, Blackgrass",[1]; [13],70
same,"Plant response rating, Galium",[2]; [12],100
same,"Plant response rating, Galium",[2]; [13],100
same,"Plant response rating, Wheat",[3]; [14],30
same,Wheat plant response rating,[3]; [15],50
same,"Plant response rating, Wheat",[3]; [16],90
same,"Plant response rating, Wheat",[3]; [17],0
same,"Plant response rating, Wheat",[3]; [18],0
same,"Plant response rating, Wheat",[3]; [19],15
same,Wheat plant response rating,[3]; [20],40
same,Wheat plant response rating,[3]; [21],65
same,"Plant response rating, Pigweed",[4]; [14],80
same,Pigweed plant response rating,[4]; [15],100
same,"Plant response rating, Pigweed",[4]; [16],100
same,"Plant response rating, Pigweed",[4]; [17],75
same,"Plant response rating, Pigweed",[4]; [18],100
same,"Plant response rating, Pigweed",[4]; [19],100
same,Pigweed plant response rating,[4]; [20],100
same,Pigweed plant response rating,[4]; [21],100
same,"Plant response rating, Johnsongrass",[5]; [14],10
same,Johnsongrass plant response rating,[5]; [15],10
same,"Plant response rating, Johnsongrass",[5]; [16],25
same,"Plant response rating, Johnsongrass",[5]; [17],0
same,"Plant response rating, Johnsongrass",[5]; [18],5
same,"Plant response rating, Johnsongrass",[5]; [19],5
same,Johnsongrass plant response rating,[5]; [20],5
same,Johnsongrass plant response rating,[5]; [21],5
same,"Plant response rating, Rice",[6],0
same,"Plant response rating, Barnyardgrass",[7],0
same,"Plant response rating, Sedge, Umbrella",[8],0
same,"Plant response rating, Ducksalad",[9],0
same,"Plant response rating, Kochia",[10]; [14],95
same,Kochia plant response rating,[10]; [15],100
same,"Plant response rating, Kochia",[10]; [16],100
same,Kochia plant response rating,[10]; [21],100
same,"Plant response rating, Oat, Wild",[11]; [14],90
same,"Oat, Wild plant response rating",[11]; [15],90
same,"Plant response rating, Oat, Wild",[11]; [16],95
same,"Oat, Wild plant response rating",[11]; [21],95
COC(=O)Oc1c(OC)nn(C)c(=O)c1-c1c(C)ccc2ccccc12 [Compound 136],"Plant response rating, Blackgrass",[1]; [12],60
same,"Plant response rating, Blackgrass",[1]; [13],90
same,"Plant response rating, Galium",[2]; [12],100
same,"Plant response rating, Galium",[2]; [13],100
same,"Plant response rating, Wheat",[3]; [14],35
same,Wheat plant response rating,[3]; [15],45
same,"Plant response rating, Wheat",[3]; [16],90
same,"Plant response rating, Wheat",[3]; [17],0
same,"Plant response rating, Wheat",[3]; [18],10
same,"Plant response rating, Wheat",[3]; [19],45
same,Wheat plant response rating,[3]; [20],45
same,Wheat plant response rating,[3]; [21],45
same,"Plant response rating, Pigweed",[4]; [14],75
same,Pigweed plant response rating,[4]; [15],80
same,"Plant response rating, Pigweed",[4]; [16],98
same,"Plant response rating, Pigweed",[4]; [17],100
same,"Plant response rating, Pigweed",[4]; [18],100
same,"Plant response rating, Pigweed",[4]; [19],100
same,Pigweed plant response rating,[4]; [20],100
same,Pigweed plant response rating,[4]; [21],85
same,"Plant response rating, Johnsongrass",[5]; [14],5
same,Johnsongrass plant response rating,[5]; [15],5
same,"Plant response rating, Johnsongrass",[5]; [16],5
same,"Plant response rating, Johnsongrass",[5]; [17],5
same,"Plant response rating, Johnsongrass",[5]; [18],5
same,"Plant response rating, Johnsongrass",[5]; [19],20
same,Johnsongrass plant response rating,[5]; [20],10
same,Johnsongrass plant response rating,[5]; [21],5
same,"Plant response rating, Rice",[6],0
same,"Plant response rating, Barnyardgrass",[7],0
same,"Plant response rating, Sedge, Umbrella",[8],0
same,"Plant response rating, Ducksalad",[9],0
same,"Plant response rating, Kochia",[10]; [14],95
same,Kochia plant response rating,[10]; [15],95
same,"Plant response rating, Kochia",[10]; [16],100
same,Kochia plant response rating,[10]; [21],100
same,"Plant response rating, Oat, Wild",[11]; [14],50
same,"Oat, Wild plant response rating",[11]; [15],75
same,"Plant response rating, Oat, Wild",[11]; [16],90
same,"Oat, Wild plant response rating",[11]; [21],85
Cc1nn(C)c(=O)c(-c2ccc(Cl)c3ccccc23)c1O [Compound 139],"Plant response rating, Blackgrass",[1]; [12],60
same,"Plant response rating, Blackgrass",[1]; [13],90
same,"Plant response rating, Galium",[2]; [12],100
same,"Plant response rating, Galium",[2]; [13],100
same,"Plant response rating, Wheat",[3]; [14],45
same,Wheat plant response rating,[3]; [15],55
same,"Plant response rating, Wheat",[3]; [16],90
same,"Plant response rating, Wheat",[3]; [17],0
same,"Plant response rating, Wheat",[3]; [18],10
same,"Plant response rating, Wheat",[3]; [19],15
same,Wheat plant response rating,[3]; [20],10
same,Wheat plant response rating,[3]; [21],60
same,"Plant response rating, Pigweed",[4]; [14],80
same,Pigweed plant response rating,[4]; [15],95
same,"Plant response rating, Pigweed",[4]; [16],98
same,"Plant response rating, Pigweed",[4]; [17],70
same,"Plant response rating, Pigweed",[4]; [18],98
same,"Plant response rating, Pigweed",[4]; [19],100
same,Pigweed plant response rating,[4]; [20],100
same,Pigweed plant response rating,[4]; [21],98
same,"Plant response rating, Johnsongrass",[5]; [14],5
same,Johnsongrass plant response rating,[5]; [15],5
same,"Plant response rating, Johnsongrass",[5]; [16],25
same,"Plant response rating, Johnsongrass",[5]; [17],5
same,"Plant response rating, Johnsongrass",[5]; [18],35
same,"Plant response rating, Johnsongrass",[5]; [19],35
same,Johnsongrass plant response rating,[5]; [20],25
same,Johnsongrass plant response rating,[5]; [21],15
same,"Plant response rating, Rice",[6],0
same,"Plant response rating, Barnyardgrass",[7],0
same,"Plant response rating, Sedge, Umbrella",[8],0
same,"Plant response rating, Ducksalad",[9],0
same,"Plant response rating, Kochia",[10]; [14],95
same,Kochia plant response rating,[10]; [15],100
same,"Plant response rating, Kochia",[10]; [16],100
same,Kochia plant response rating,[10]; [21],100
same,"Plant response rating, Oat, Wild",[11]; [14],90
same,"Oat, Wild plant response rating",[11]; [15],90
same,"Plant response rating, Oat, Wild",[11]; [16],90
same,"Oat, Wild plant response rating",[11]; [21],90
Cc1ccc2ccc(Cl)cc2c1-c1c(O)c(C)nn(C)c1=O [Compound 144],"Plant response rating, Blackgrass",[1]; [12],90
same,"Plant response rating, Blackgrass",[1]; [13],100
same,"Plant response rating, Galium",[2]; [12],100
same,"Plant response rating, Galium",[2]; [13],100
same,"Plant response rating, Wheat",[3]; [22],0
same,"Plant response rating, Wheat",[3]; [23],90
same,Wheat plant response rating,[3]; [23],90
same,"Plant response rating, Wheat",[3]; [24],95
same,"Plant response rating, Wheat",[3]; [14],95
same,"Plant response rating, Wheat",[3]; [25],70
same,"Plant response rating, Wheat",[3]; [17],90
same,"Plant response rating, Pigweed",[4]; [22],75
same,Pigweed plant response rating,[4]; [23],80
same,"Plant response rating, Pigweed",[4]; [23],85
same,"Plant response rating, Pigweed",[4]; [24],85
same,"Plant response rating, Pigweed",[4]; [14],90
same,"Plant response rating, Pigweed",[4]; [25],100
same,"Plant response rating, Pigweed",[4]; [17],100
same,"Plant response rating, Johnsongrass",[5]; [22],0
same,Johnsongrass plant response rating,[5]; [23],20
same,"Plant response rating, Johnsongrass",[5]; [23],10
same,"Plant response rating, Johnsongrass",[5]; [24],10
same,"Plant response rating, Johnsongrass",[5]; [14],10
same,"Plant response rating, Johnsongrass",[5]; [25],25
same,"Plant response rating, Johnsongrass",[5]; [17],60
same,"Plant response rating, Rice",[6],30
same,"Plant response rating, Barnyardgrass",[7],30
same,"Plant response rating, Sedge, Umbrella",[8],0
same,"Plant response rating, Ducksalad",[9],40
same,Kochia plant response rating,[10]; [23],90
same,"Plant response rating, Kochia",[10]; [23],90
same,"Plant response rating, Kochia",[10]; [24],98
same,"Plant response rating, Kochia",[10]; [14],98
same,"Oat, Wild plant response rating",[11]; [23],80
same,"Plant response rating, Oat, Wild",[11]; [23],90
same,"Plant response rating, Oat, Wild",[11]; [24],90
same,"Plant response rating, Oat, Wild",[11]; [14],90
